Data from the NIST ThermoML archive (doi:10.1016/j.fluid.2015.03.016).
“And” between values parts separate entries of the source, which are not always exact repeats. Equal entries are not always repeated.

Details: Liquid

CCCCOC(=O)CCCCC(=O)OCCCC [dibutyl hexanedioate]
Details | viscosity
303.14 K, 1250 kPa, Vibrating wire viscometry | 4.201 mPa·s
303.14 K, 1280 kPa, Vibrating wire viscometry | 4.21 mPa·s
303.14 K, 2750 kPa, Vibrating wire viscometry | 4.305 mPa·s
303.14 K, 2760 kPa, Vibrating wire viscometry | 4.313 mPa·s
303.14 K, 2770 kPa, Vibrating wire viscometry | 4.312 mPa·s
303.14 K, 5400 kPa, Vibrating wire viscometry | 4.417 mPa·s
303.14 K, 5420 kPa, Vibrating wire viscometry | 4.417 mPa·s and 4.419 mPa·s and 4.413 mPa·s
303.14 K, 7530 kPa, Vibrating wire viscometry | 4.511 mPa·s
303.14 K, 7570 kPa, Vibrating wire viscometry | 4.513 mPa·s
303.14 K, 7660 kPa, Vibrating wire viscometry | 4.532 mPa·s
303.14 K, 10500 kPa, Vibrating wire viscometry | 4.68 mPa·s
303.14 K, 10520 kPa, Vibrating wire viscometry | 4.686 mPa·s
303.14 K, 10570 kPa, Vibrating wire viscometry | 4.683 mPa·s
303.14 K, 20260 kPa, Vibrating wire viscometry | 5.251 mPa·s
303.14 K, 20300 kPa, Vibrating wire viscometry | 5.25 mPa·s
303.14 K, 20320 kPa, Vibrating wire viscometry | 5.249 mPa·s
303.14 K, 65590 kPa, Vibrating wire viscometry | 8.312 mPa·s
303.15 K, 1220 kPa, Vibrating wire viscometry | 4.205 mPa·s
303.15 K, 1280 kPa, Vibrating wire viscometry | 4.208 mPa·s
303.15 K, 1290 kPa, Vibrating wire viscometry | 4.21 mPa·s
303.15 K, 1300 kPa, Vibrating wire viscometry | 4.211 mPa·s
303.15 K, 2770 kPa, Vibrating wire viscometry | 4.312 mPa·s
303.15 K, 5420 kPa, Vibrating wire viscometry | 4.415 mPa·s and 4.419 mPa·s
303.15 K, 7660 kPa, Vibrating wire viscometry | 4.531 mPa·s and 4.537 mPa·s
303.15 K, 7680 kPa, Vibrating wire viscometry | 4.531 mPa·s and 4.533 mPa·s and 4.537 mPa·s
303.15 K, 7730 kPa, Vibrating wire viscometry | 4.518 mPa·s
303.15 K, 10560 kPa, Vibrating wire viscometry | 4.689 mPa·s
303.15 K, 15380 kPa, Vibrating wire viscometry | 4.954 mPa·s
303.15 K, 15390 kPa, Vibrating wire viscometry | 4.955 mPa·s and 4.963 mPa·s and 4.951 mPa·s
303.15 K, 30100 kPa, Vibrating wire viscometry | 5.839 mPa·s
303.15 K, 30180 kPa, Vibrating wire viscometry | 5.821 mPa·s
303.15 K, 30250 kPa, Vibrating wire viscometry | 5.828 mPa·s
303.15 K, 30290 kPa, Vibrating wire viscometry | 5.827 mPa·s
303.15 K, 30330 kPa, Vibrating wire viscometry | 5.817 mPa·s
303.15 K, 30380 kPa, Vibrating wire viscometry | 5.827 mPa·s
303.15 K, 39970 kPa, Vibrating wire viscometry | 6.452 mPa·s
303.15 K, 40060 kPa, Vibrating wire viscometry | 6.443 mPa·s
303.15 K, 40100 kPa, Vibrating wire viscometry | 6.443 mPa·s
303.15 K, 40150 kPa, Vibrating wire viscometry | 6.446 mPa·s
303.15 K, 49790 kPa, Vibrating wire viscometry | 7.073 mPa·s
303.15 K, 49810 kPa, Vibrating wire viscometry | 7.073 mPa·s
303.15 K, 49830 kPa, Vibrating wire viscometry | 7.07 mPa·s
303.15 K, 49880 kPa, Vibrating wire viscometry | 7.058 mPa·s
303.15 K, 65340 kPa, Vibrating wire viscometry | 8.283 mPa·s
303.15 K, 65490 kPa, Vibrating wire viscometry | 8.277 mPa·s
313.14 K, 1070 kPa, Vibrating wire viscometry | 3.362 mPa·s
313.14 K, 1090 kPa, Vibrating wire viscometry | 3.364 mPa·s
313.14 K, 1110 kPa, Vibrating wire viscometry | 3.371 mPa·s
313.14 K, 1160 kPa, Vibrating wire viscometry | 3.369 mPa·s
313.14 K, 2580 kPa, Vibrating wire viscometry | 3.416 mPa·s
313.14 K, 2590 kPa, Vibrating wire viscometry | 3.412 mPa·s and 3.414 mPa·s
313.14 K, 2600 kPa, Vibrating wire viscometry | 3.415 mPa·s
313.14 K, 2610 kPa, Vibrating wire viscometry | 3.416 mPa·s
313.14 K, 5050 kPa, Vibrating wire viscometry | 3.518 mPa·s
313.14 K, 5060 kPa, Vibrating wire viscometry | 3.518 mPa·s
313.14 K, 7630 kPa, Vibrating wire viscometry | 3.595 mPa·s
313.14 K, 10470 kPa, Vibrating wire viscometry | 3.713 mPa·s
313.14 K, 15150 kPa, Vibrating wire viscometry | 3.89 mPa·s and 3.889 mPa·s
313.14 K, 15210 kPa, Vibrating wire viscometry | 3.888 mPa·s
313.14 K, 20300 kPa, Vibrating wire viscometry | 4.123 mPa·s
313.14 K, 20430 kPa, Vibrating wire viscometry | 4.12 mPa·s
313.14 K, 20440 kPa, Vibrating wire viscometry | 4.123 mPa·s
313.14 K, 30160 kPa, Vibrating wire viscometry | 4.553 mPa·s
313.14 K, 30180 kPa, Vibrating wire viscometry | 4.556 mPa·s and 4.554 mPa·s
313.14 K, 30190 kPa, Vibrating wire viscometry | 4.556 mPa·s
313.14 K, 40210 kPa, Vibrating wire viscometry | 5.026 mPa·s
313.14 K, 40270 kPa, Vibrating wire viscometry | 5.022 mPa·s
313.14 K, 40290 kPa, Vibrating wire viscometry | 5.03 mPa·s
313.14 K, 40330 kPa, Vibrating wire viscometry | 5.028 mPa·s
313.14 K, 50580 kPa, Vibrating wire viscometry | 5.596 mPa·s
313.14 K, 50590 kPa, Vibrating wire viscometry | 5.598 mPa·s
313.14 K, 50610 kPa, Vibrating wire viscometry | 5.595 mPa·s and 5.596 mPa·s and 5.591 mPa·s
313.14 K, 50640 kPa, Vibrating wire viscometry | 5.591 mPa·s
313.14 K, 65090 kPa, Vibrating wire viscometry | 6.358 mPa·s
313.14 K, 65110 kPa, Vibrating wire viscometry | 6.365 mPa·s
313.15 K, 5050 kPa, Vibrating wire viscometry | 3.522 mPa·s and 3.516 mPa·s
313.15 K, 5310 kPa, Vibrating wire viscometry | 3.531 mPa·s
313.15 K, 5320 kPa, Vibrating wire viscometry | 3.531 mPa·s
313.15 K, 5340 kPa, Vibrating wire viscometry | 3.529 mPa·s
313.15 K, 5350 kPa, Vibrating wire viscometry | 3.534 mPa·s
313.15 K, 5370 kPa, Vibrating wire viscometry | 3.531 mPa·s
313.15 K, 5380 kPa, Vibrating wire viscometry | 3.532 mPa·s
313.15 K, 7570 kPa, Vibrating wire viscometry | 3.59 mPa·s
313.15 K, 7580 kPa, Vibrating wire viscometry | 3.595 mPa·s
313.15 K, 7610 kPa, Vibrating wire viscometry | 3.598 mPa·s
313.15 K, 10450 kPa, Vibrating wire viscometry | 3.717 mPa·s
313.15 K, 10470 kPa, Vibrating wire viscometry | 3.712 mPa·s
313.15 K, 10500 kPa, Vibrating wire viscometry | 3.714 mPa·s
313.15 K, 15160 kPa, Vibrating wire viscometry | 3.887 mPa·s and 3.889 mPa·s
313.15 K, 15180 kPa, Vibrating wire viscometry | 3.891 mPa·s
313.15 K, 20420 kPa, Vibrating wire viscometry | 4.122 mPa·s
313.15 K, 30150 kPa, Vibrating wire viscometry | 4.56 mPa·s
313.15 K, 30200 kPa, Vibrating wire viscometry | 4.555 mPa·s
323.11 K, 101.33 kPa, Capillary tube (Ostwald / Ubbelohde) method | 2.704 mPa·s
323.14 K, 1140 kPa, Vibrating wire viscometry | 2.727 mPa·s and 2.723 mPa·s
323.14 K, 5040 kPa, Vibrating wire viscometry | 2.856 mPa·s
323.14 K, 10170 kPa, Vibrating wire viscometry | 3.018 mPa·s
323.14 K, 30230 kPa, Vibrating wire viscometry | 3.694 mPa·s and 3.693 mPa·s
323.14 K, 39990 kPa, Vibrating wire viscometry | 4.08 mPa·s
323.14 K, 40050 kPa, Vibrating wire viscometry | 4.079 mPa·s
323.15 K, 1130 kPa, Vibrating wire viscometry | 2.728 mPa·s and 2.722 mPa·s
323.15 K, 2630 kPa, Vibrating wire viscometry | 2.775 mPa·s
323.15 K, 2640 kPa, Vibrating wire viscometry | 2.778 mPa·s
323.15 K, 2650 kPa, Vibrating wire viscometry | 2.776 mPa·s and 2.775 mPa·s
323.15 K, 5040 kPa, Vibrating wire viscometry | 2.856 mPa·s
323.15 K, 5070 kPa, Vibrating wire viscometry | 2.86 mPa·s
323.15 K, 5100 kPa, Vibrating wire viscometry | 2.863 mPa·s
323.15 K, 5170 kPa, Vibrating wire viscometry | 2.846 mPa·s
323.15 K, 5180 kPa, Vibrating wire viscometry | 2.841 mPa·s
323.15 K, 5190 kPa, Vibrating wire viscometry | 2.843 mPa·s
323.15 K, 7740 kPa, Vibrating wire viscometry | 2.926 mPa·s and 2.931 mPa·s
323.15 K, 7750 kPa, Vibrating wire viscometry | 2.924 mPa·s
323.15 K, 7760 kPa, Vibrating wire viscometry | 2.926 mPa·s and 2.931 mPa·s
323.15 K, 10130 kPa, Vibrating wire viscometry | 3.018 mPa·s
323.15 K, 10140 kPa, Vibrating wire viscometry | 3.02 mPa·s
323.15 K, 10150 kPa, Vibrating wire viscometry | 3.02 mPa·s and 3.016 mPa·s
323.15 K, 15220 kPa, Vibrating wire viscometry | 3.172 mPa·s and 3.173 mPa·s and 3.174 mPa·s
323.15 K, 15230 kPa, Vibrating wire viscometry | 3.175 mPa·s and 3.171 mPa·s
323.15 K, 20200 kPa, Vibrating wire viscometry | 3.331 mPa·s
323.15 K, 20230 kPa, Vibrating wire viscometry | 3.327 mPa·s and 3.335 mPa·s
323.15 K, 20250 kPa, Vibrating wire viscometry | 3.33 mPa·s
323.15 K, 20270 kPa, Vibrating wire viscometry | 3.334 mPa·s
323.15 K, 30190 kPa, Vibrating wire viscometry | 3.693 mPa·s
323.15 K, 30220 kPa, Vibrating wire viscometry | 3.689 mPa·s
323.15 K, 40130 kPa, Vibrating wire viscometry | 4.073 mPa·s
323.15 K, 40140 kPa, Vibrating wire viscometry | 4.077 mPa·s
323.15 K, 50030 kPa, Vibrating wire viscometry | 4.456 mPa·s
323.15 K, 50050 kPa, Vibrating wire viscometry | 4.45 mPa·s
323.15 K, 50060 kPa, Vibrating wire viscometry | 4.457 mPa·s
323.16 K, 5190 kPa, Vibrating wire viscometry | 2.849 mPa·s
323.16 K, 65110 kPa, Vibrating wire viscometry | 5.126 mPa·s
323.16 K, 65190 kPa, Vibrating wire viscometry | 5.123 mPa·s
323.16 K, 65230 kPa, Vibrating wire viscometry | 5.125 mPa·s
323.16 K, 65310 kPa, Vibrating wire viscometry | 5.119 mPa·s
333.03 K, 101.33 kPa, Capillary tube (Ostwald / Ubbelohde) method | 2.25 mPa·s
333.15 K, 1000 kPa, Vibrating wire viscometry | 2.27 mPa·s
333.15 K, 1020 kPa, Vibrating wire viscometry | 2.27 mPa·s
333.15 K, 1170 kPa, Vibrating wire viscometry | 2.269 mPa·s
333.15 K, 1200 kPa, Vibrating wire viscometry | 2.268 mPa·s
333.15 K, 2530 kPa, Vibrating wire viscometry | 2.296 mPa·s
333.15 K, 5030 kPa, Vibrating wire viscometry | 2.367 mPa·s
333.15 K, 5050 kPa, Vibrating wire viscometry | 2.362 mPa·s
333.15 K, 5070 kPa, Vibrating wire viscometry | 2.365 mPa·s
